“And” between values parts separate entries of the source, which are not always exact repeats. Equal values may be shown once. Where a name gives a salt, the structure may show the parent alone.
Columns and labels:
[1] = test system: endogenous adrenergic receptors in HEK 293T cells; experiment: cAMP accumulation, untransfected cells; assay type: cell-based, human; settings: untransfected HEK 293T cells; Isoproterenol 10 µM
Protocol: Resuspended cells were added 1:1 with a 2× concentration of ligand (10 µl final) into an opaque 384-well flat bottom plate (Greiner Bio-One). […]. for FSK inhibition assays with β-ARs, 100 µM metoprolol was used. For dose–response curves, a saturating concentration of forskolin (10 µM) was included as a control to measure cAMP stimulation independent of the transfected receptor. For experiments comparing multiple receptors measuring non-cognate or secondary Gs signalling (Fig. 4e, Extended Data Fig. 8i–k), 500 µM 3-isobutyl-1-methylxanthine (IBMX) was used to inhibit phosphodiesterase activity. For all other experiments, no IBMX was used to minimize cAMP accumulation from endogenous receptors (Extended Data Fig. 6a). For experiments in Fig. 2g and Extended Data Fig. 6b,e, plates were incubated at 37 °C for 10 min to stimulate cAMP production. For all other experiments, plates were incubated at room temperature for 10 min. […] Reactions were quenched and processed for the cAMP-Glo Assay (Promega) following the manufacturer’s instructions. Luminescence was measured on a Tecan Spark plate reader (500 ms integration, one measurement per well). […]

β2AR = experiment: cAMP accumulation (cAMP-Glo), β2AR; assay type: cell-based, human; settings: for cAMP response (Average): β2AR L258Azi
[2] = test system: β2AR–Gs peptide FRET sensor; experiment: ∆FRET assay, β2AR–Gs peptide SPASM FRET sensor; settings: isoproterenol 100 µM
PTH1R = experiment: cAMP accumulation, PTH1R; assay type: cell-based, human; settings: PTH1R B2AR ICL3
Protocol: One millilitre of medium was removed from each well containing transfected cells. The remaining volume was used to gently shear and resuspend the cells by pipetting. The cell mixture was centrifuged (3 min, 300g) and media was removed using a vacuum manifold. […] The cells were washed once by repeating this procedure.
For all other second messenger assays, expression level and cell density of each condition was estimated through fluorescence. Fluorescence spectra for mCerulean (Horiba Fluoromax 4, excitation 430 nm, emission scan 450–600 nm, bandpass 4 nm) and mCitrine (Horiba Fluoromax 4, excitation 490 nm, emission scan 500–600 nm, bandpass 4 nm) were acquired for each condition. Cells were resuspended at 350,000 ± 30,000 fluorescence counts at a wavelength representing optical density of the sample (excitation 430 nm/emission 450 nm), corresponding with 2 × 10^6 ± 5 × 10^5 cells per m^l. This was confirmed by counting the cells on a haemocytometer (Countess II).
Resuspended cells were added 1:1 with a 2× concentration of ligand (10 µl final) into an opaque 384-well flat bottom plate (Greiner Bio-One). […] For dose–response curves, a saturating concentration of forskolin (10 µM) was included as a control to measure cAMP stimulation independent of the transfected receptor. […] For all other experiments, plates were incubated at room temperature for 10 min. […] Reactions were quenched and processed for the cAMP-Glo Assay (Promega) following the manufacturer’s instructions. Luminescence was measured on a Tecan Spark plate reader (500 ms integration, one measurement per well).

CC(C)NCC(O)c1ccc(O)c(O)c1 (stereo not drawn) [Isoproterenol, isoproterenol (+)-bitartrate salt]
cAMP generated from endogenous receptors [1]: only detected in the presence of 500 µM IBMX
Emax (Average) (β2AR; β2AR L258 (L258Azi), fit of the isoproterenol concentration-response of Extended Data Figure 3B): 1.23E+05
cAMP response (Average) (β2AR; Log (Isoproterenol (M)) -4): 1.30E+05
cAMP response (Average) (β2AR; Log (Isoproterenol (M)) -5): 1.30E+05
cAMP response (Average) (β2AR; Log (Isoproterenol (M)) -6): 1.28E+05
cAMP response (Average) (β2AR; Log (Isoproterenol (M)) -7): 1.04E+05
cAMP response (Average) (β2AR; Log (Isoproterenol (M)) -7.52288): 1.08E+05
cAMP response (Average) (β2AR; Log (Isoproterenol (M)) -8): 1.10E+05
cAMP response (Average) (β2AR; Log (Isoproterenol (M)) -8.52288): 6.79E+04
cAMP response (Average) (β2AR; Log (Isoproterenol (M)) -9): 4.10E+04
cAMP response (Average) (β2AR; Log (Isoproterenol (M)) -9.52288): 2.28E+04
cAMP response (Average) (β2AR; Log (Isoproterenol (M)) -10): -8.91E+03
cAMP response (Average) (β2AR; Log (Isoproterenol (M)) -10.5229): -2.86E+04
cAMP response (Average) (β2AR; Log (Isoproterenol (M)) -11): -9.58E+03
cAMP response (Average) (β2AR; Log (Isoproterenol (M)) -12): -4.68E+03
cAMP response (Average) (β2AR; Log (Isoproterenol (M)) -13): 2.29E+03
∆FRET (Isoproterenol - Buffer) ([2]; HVQ-AAA β2AR–Gs peptide sensor, single experiments N 1-5): 0.012 and 0.013 and 0.020
∆FRET (Isoproterenol - Buffer) ([2]; QDG-AAA β2AR–Gs peptide sensor, single experiments N 1-5): 0.021 and 0.017 and 0.027 and 0.030
∆FRET (Isoproterenol - Buffer) ([2]; Wild-Type β2AR–Gs peptide sensor, + 10 µM Gq-peptide, single samples): 0.034 and 0.026 and 0.018
∆FRET (Isoproterenol - Buffer) ([2]; Wild-Type β2AR–Gs peptide sensor, single experiments N 1-5): 0.014 and 0.016 and 0.017 and 0.019
∆FRET (Isoproterenol - Buffer) ([2]; Wild-Type β2AR–Gs peptide sensor, without Gq-peptide, single samples): 0.013 and 0.016 and 0.010 and 0.017 and 0.012
∆FRET (Isoproterenol - Buffer) ([2]; ∆ICL3 β2AR–Gs peptide sensor, without Gq-peptide, single samples): 0.022 and 0.020 and 0.025 and 0.024
cAMP (Isoproterenol/Forskolin Maximum), Average (PTH1R; [Isoproterenol] log(M) -5): 0.73
cAMP (Isoproterenol/Forskolin Maximum), Average (PTH1R; [Isoproterenol] log(M) -6): 0.71
cAMP (Isoproterenol/Forskolin Maximum), Average (PTH1R; [Isoproterenol] log(M) -7): 0.69
cAMP (Isoproterenol/Forskolin Maximum), Average (PTH1R; [Isoproterenol] log(M) -8): 0.49
cAMP (Isoproterenol/Forskolin Maximum), Average (PTH1R; [Isoproterenol] log(M) -8.30103): 0.39
cAMP (Isoproterenol/Forskolin Maximum), Average (PTH1R; [Isoproterenol] log(M) -9): 0.0653
cAMP (Isoproterenol/Forskolin Maximum), Average (PTH1R; [Isoproterenol] log(M) -9.30103): 0.0238
cAMP (Isoproterenol/Forskolin Maximum), Average (PTH1R; [Isoproterenol] log(M) -10): -0.0474
cAMP (Isoproterenol/Forskolin Maximum), Average (PTH1R; [Isoproterenol] log(M) -11): 0.02
cAMP (Isoproterenol/Forskolin Maximum), Average (PTH1R; [Isoproterenol] log(M) -12): -0.0165

Source: publication PMC10033409, “Autoregulation of GPCR signalling through the third intracellular loop” (Nature, 2023)
